# Laboratory results: patent US20240166626A1, “Compounds and Methods for Preventing, Treating, or Ameliorating Airway Disease” (THOMAS JEFFERSON UNIVERSITY, priority 2021, published 2024)
# Target: β2AR-Gs (Homo sapiens, UniProt P07550)
# Assay: Gs activation by [35S]GTPγS binding, reconstituted β2AR-Gs in lipid bicelles
# Assay type: biochemical
# Conditions: 10 μM DFPQ, 1 μM ISO, FIG. 5E
# Description: FIGS. 5A-5E illustrate certain embodiments of the disclosure. FIG. 5A: Primary titration screening data of DFPQ. […] FIGS. 5C and 5D: […] Wells were read every 2 min post agonist addition. FIG. 5E: […] Bound [^35S]-GTPγS was collected by rapid filtration on GF/B filters, washed 4 times with 4 ml of cold GTPγS wash buffer and analyzed by liquid scintillation. […]® ADRB2 cells (DiscoveRx) were maintained with the AssayCompleteTM Cell Culture kit (DiscoveRx catalog #92-[…]). […] HEK 293 cells stably overexpressing β2AR included 250 μg/ml G418. Cells were incubated at 37° C. in a humidified incubator with 5% CO2. […] Cells were read every three minutes for 18 minutes on a PolarStar Optima plate reader (BMG) to establish peak signal. […] Luminescence was determined at room temperature (23-25° C.) on a PolarStar Optima plate reader (BMG). […] Relative assay bias was calculated from the ratio of normalized cAMP and arrestin recruitment responses. […] BRET was measured using a Tecan Infinite F500 microplate reader. […] Bound [35 S]GTPγS was collected by rapid filtration on GF/B filters, washed 4 times with 4 ml of cold GTPγS wash buffer and analyzed by liquid scintillation counting. […] Immunoprecipitated proteins were separated by SDS-PAGE and analyzed by western blot using a β2AR C-terminal tail or phospho-specific antibody. […] Band intensity was measured by densitometry using ImageJ. […]
# Sequence of β2AR-Gs (P07550 whole entry): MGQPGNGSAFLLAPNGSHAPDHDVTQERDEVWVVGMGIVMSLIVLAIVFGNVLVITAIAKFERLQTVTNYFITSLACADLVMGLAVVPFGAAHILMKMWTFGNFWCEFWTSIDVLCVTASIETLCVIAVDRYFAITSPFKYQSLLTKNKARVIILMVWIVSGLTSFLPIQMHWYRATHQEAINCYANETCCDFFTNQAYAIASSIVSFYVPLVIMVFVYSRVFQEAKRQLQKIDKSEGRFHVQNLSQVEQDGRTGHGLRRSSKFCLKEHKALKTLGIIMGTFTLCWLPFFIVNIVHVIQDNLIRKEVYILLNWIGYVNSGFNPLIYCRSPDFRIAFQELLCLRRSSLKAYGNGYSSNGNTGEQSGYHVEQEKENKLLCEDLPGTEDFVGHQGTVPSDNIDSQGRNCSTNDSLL
# Sequence of β2AR-Gs (P63092 whole entry partner): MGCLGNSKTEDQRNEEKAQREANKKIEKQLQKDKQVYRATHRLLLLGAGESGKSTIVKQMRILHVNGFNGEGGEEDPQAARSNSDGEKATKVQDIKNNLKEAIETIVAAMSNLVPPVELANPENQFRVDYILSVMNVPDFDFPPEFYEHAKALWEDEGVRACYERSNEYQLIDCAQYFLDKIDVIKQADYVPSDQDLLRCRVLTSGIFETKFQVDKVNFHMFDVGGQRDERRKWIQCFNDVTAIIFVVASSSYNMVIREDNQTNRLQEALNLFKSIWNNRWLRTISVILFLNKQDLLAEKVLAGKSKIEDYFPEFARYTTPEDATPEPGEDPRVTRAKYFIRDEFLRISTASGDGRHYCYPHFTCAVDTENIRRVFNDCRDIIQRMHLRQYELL
# Sequence of β2AR-Gs (P62873 whole entry partner): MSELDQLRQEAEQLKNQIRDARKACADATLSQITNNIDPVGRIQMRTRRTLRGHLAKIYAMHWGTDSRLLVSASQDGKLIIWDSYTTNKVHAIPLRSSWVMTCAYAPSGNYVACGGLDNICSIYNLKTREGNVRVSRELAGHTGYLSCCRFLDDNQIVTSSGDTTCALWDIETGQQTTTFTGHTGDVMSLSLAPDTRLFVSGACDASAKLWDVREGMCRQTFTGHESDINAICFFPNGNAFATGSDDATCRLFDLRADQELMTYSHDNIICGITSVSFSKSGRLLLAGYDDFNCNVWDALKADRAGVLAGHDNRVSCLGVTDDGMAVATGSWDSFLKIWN
# Sequence of β2AR-Gs (P59768 2-68 partner): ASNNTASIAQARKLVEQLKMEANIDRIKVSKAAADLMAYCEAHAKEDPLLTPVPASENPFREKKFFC
compound,measurement,value
"Fc1ccc(Nc2nc(NC3CCCCC3)c3ccccc3n2)cc1F [DFPQ, N^4-cyclohexyl-N^2-(3,4-difluorophenyl)quinazoline-2,4-diamine]",effect on ISO-dependent activation of purified Gs by the β2AR (GTPγS binding),no effect
